# Measured values published in ChEMBL document CHEMBL3112482, “Nonclassical antifolates, part 5. Benzodiazepine analogs as a new class of DHFR inhibitors: synthesis, antitumor testing and molecular modeling study” (Eur J Med Chem, 2014).
# Target: T1, Dihydrofolate reductase (Bos taurus, UniProt P00376)
# T1 sequence (P00376 whole entry): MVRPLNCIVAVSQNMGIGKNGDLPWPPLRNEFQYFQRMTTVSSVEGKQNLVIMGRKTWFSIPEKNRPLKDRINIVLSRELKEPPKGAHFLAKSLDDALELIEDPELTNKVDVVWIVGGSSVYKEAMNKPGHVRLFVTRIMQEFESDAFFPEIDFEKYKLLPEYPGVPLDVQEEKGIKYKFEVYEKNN
# Test: Inhibition of bovine liver DHFR measured for every 1 min of 10 mins
row,Structure (SMILES),IC50 [µM]
1,COc1ccc(/C=C2\CCCC3=C(c4ccc(OC)c(OC)c4)Nc4ccccc4N=C32)cc1OC,0.06
2,Brc1ccc(/C=C2\CCCC3=C(c4ccc(Br)cc4)Nc4ccccc4N=C32)cc1,65
3,Cc1cc2c(cc1C)NC(c1ccc(Cl)cc1)=C1CCC/C(=C\c3ccc(Cl)cc3)C1=N2,70
4,Clc1ccc(/C=C2\CCCC3=C(c4ccc(Cl)cc4)Nc4cc(Cl)c(Cl)cc4N=C32)cc1,12
5,Clc1cc2c(cc1Cl)NC(c1ccc(Br)cc1)=C1CCC/C(=C\c3ccc(Br)cc3)C1=N2,0.1
